“And” between values parts separate entries of the source, which are not always exact repeats. Equal values may be shown once. Read-outs that look alike come from different tables or passages of the source.
Columns and labels:
SARS-CoV-2 [1] = assay: Antiviral assay in Calu-3 cells (spike staining); format: cell-based
[2] = Cytotoxicity in Calu-3 cells; settings: human
SARS-CoV-2 M^pro = SARS-CoV-2 M^pro (Severe acute respiratory syndrome coronavirus 2, UniProt P0DTD1); assay: biochemical; format: biochemical; settings: for inhibition at 20 µM: read-out: SARS-CoV-2 M^pro enzyme inhibition (%) 20 μM; for inhibition at 100 µM: 100 μM compound, read-out: SARS-CoV-2 M^pro enzyme inhibition (%) 100 μM
M^pro = M^pro (Severe acute respiratory syndrome coronavirus 2, UniProt P0DTD1); format: binding; settings: 2 μM protein, 50 μM ligand
in vitro = settings: human
SARS-CoV-2 PLpro [3] = molecular target: T1, SARS-CoV-2 PLpro (Severe acute respiratory syndrome coronavirus 2, UniProt P0DTD1); assay: biochemical; parameters: papain-like protease (PL^pro; domain of nsp3); purchased Anaspec (Fremont, USA) AS-72263; settings: for inhibition at 20 µM: read-out: SARS-CoV-2 PLpro inhibition % enzyme inhibition (20 µM); for SARS-CoV-2 PLpro inhibition % enzyme inhibition (20 µM): commercial Anaspec assay kit
SARS-CoV-2 PLpro [4] = molecular target: T1, SARS-CoV-2 PLpro; assay: PL^pro fluorogenic peptide cleavage assay (substrate Z-RLRGG-AMC); format: biochemical; parameters: papain-like protease (PL^pro; domain of nsp3); His; purchased BPS Biosciences BPS-100735-1; settings: for inhibition at 20 µM: read-out: SARS-CoV-2 PL^pro enzyme inhibition (%) 20 μM; for inhibition at 100 µM: read-out: SARS-CoV-2 PL^pro enzyme inhibition (%) 100 μM
[5] = Cytotoxicity in Caco-2 cells; settings: human
SARS-CoV-2 [6] = assay: Antiviral assay in Caco-2 cells; format: cell-based; settings: Severe acute respiratory syndrome coronavirus 2, Caco-2, read-out: Anti SARS-CoV-2 activity Caco-2 IC50 (µM)
[7] = Severe acute respiratory syndrome coronavirus 2, Calu-3 cells, MOI 0.01, 48 h postinfection, read-out: Anti-SARS-CoV-2 activity IC50
[8] = 20 μM compound, buffer with 5 mM DTT, for values marked a the relative standard deviation of 6% applies
[9] = read-out: SARS-CoV-2 M^pro IC50, buffer with 5 mM DTT
[10] = Severe acute respiratory syndrome coronavirus 2, Calu-3, 48 h, read-out: Anti-SARS-CoV-2 activity IC50 (μM)

| Structure (SMILES) | inhibition at 20 µM (SARS-CoV-2 M^pro; [8]) | inhibition at 100 µM (SARS-CoV-2 M^pro; buffer with 5 mM DTT) | inhibition at 20 µM (SARS-CoV-2 PLpro [3]) | inhibition at 20 µM (SARS-CoV-2 PLpro [4]) | inhibition at 100 µM (SARS-CoV-2 PLpro [4]) | also measured |
| --- | --- | --- | --- | --- | --- | --- |
| CCC(CC)COC(=O)[C@H](C)N[P@](=O)(OC[C@H]1O[C@@](C#N)(c2ccc3c(N)ncnn23)[C@H](O)[C@@H]1O)Oc1ccccc1 [Compound 1, remdesivir, reference compound] | – | – | – | – | – | IC50 (SARS-CoV-2 [1]; [7]): 0.00125 µM; CC50 [2]: > 0.1 µM |
| CC(C)=CCC/C(C)=C/Cc1c(O)ccc([C@@H]2CC(=O)c3c(O)cc(O)cc3O2)c1O [Compound 11, sanggenol A] | 31.9% | 98.3 ± 2.4% | – | – | – | – |
| CC(C)=CCC12Oc3cc(O)c([C@@H]4C=C(C)C[C@H](c5ccc(O)cc5O)[C@H]4C(=O)c4ccc(O)cc4O)c(O)c3C(=O)C1(O)Oc1cc(O)ccc12 (some centres unmarked) [Compound 14, sanggenon D] | – | – | – | – | – | IC50 (SARS-CoV-2 [1]; [7]): 18.5 µM; STD signals (M^pro): exhibited STD signals; IC50 (SARS-CoV-2 M^pro; SARS-CoV-2 M^pro IC50 (μM), buffer with 5 mM DTT): 13.8 µM and 13.9 µM; CC50 [2]: 46.2 µM |
| CC1=C[C@H](c2c(O)ccc([C@@H]3CC(=O)c4c(O)cc(O)cc4O3)c2O)[C@@H](C(=O)c2ccc(O)cc2O)[C@H](c2ccc(O)cc2O)C1 [Compound 16, kuwanon L] | 70.4% | 97.6 ± 2.5% | – | – | – | STD signals (M^pro): exhibited STD signals; IC50 (SARS-CoV-2 M^pro; read-out: SARS-CoV-2 M^pro IC50): 5.25 µM and 5.3 µM; CC50 [2]: 97.7 µM |
| O=C(CCc1ccccc1)C[C@H]1C[C@H](c2ccccc2)c2c(cc(/C=C/c3ccccc3)oc2=O)O1 [Compound 17, katsumadain A] | 5% | 47.7 ± 2.8% | – | – | – | – |
| O=C(/C=C/c1ccc(O)c(O)c1)O[C@@H](C(=O)O)[C@@H](OC(=O)/C=C/c1ccc(O)c(O)c1)C(=O)O [Compound 18, chicoric acid] | 0.7% | 11.5 ± 0.6% | – | – | – | – |
| O=C(/C=C/c1ccc(O)c(O)c1)OC1CC(OC(=O)/C=C/c2ccc(O)c(O)c2)(C(=O)O)CC(O)C1O (centres unmarked) [Compound 19, cynarine] | – | 9.8 ± 13.3% | – | – | – | – |
| CC(C)=CCc1cc(-c2coc3cc(O)ccc3c2=O)ccc1O [Compound 20, neobavaisoflavone] | – | – | – | – | – | inhibition at 20 µM (SARS-CoV-2 M^pro): 18% |
| C=C(C)[C@H](CC=C(C)C)Cc1c(O)cc(OC)c2c1O[C@H](c1ccc(O)cc1O)CC2=O [Compound 21, kurarinone] | 30.2% | 99.2 ± 2.5% | – | – | – | – |
| CC(C)=CCc1c(-c2ccc(O)c3c2OC(C)(C)C=C3)oc2cc(O)cc(O)c2c1=O [Compound 22, kuwanon A] | 45.5 ± 7.1% | 79.2 ± 2.4% | – | – | – | IC50 (SARS-CoV-2 [1]; [7]): 35.6 µM; CC50 (in vitro): 47.7 µM; IC50 (SARS-CoV-2 M^pro; [9]): 35.2 µM |
| CC(C)=CCc1c(-c2ccc(O)cc2O)oc2c3c(cc(O)c2c1=O)OC(C)(C)C=C3 [Compound 23, morusin] | – | – | – | – | – | IC50 (SARS-CoV-2 [1]; [7]): 24.9 µM; CC50 (in vitro): 25.2 µM; IC50 (SARS-CoV-2 M^pro; [9]): 33.5 µM |
| CC(C)(O)CCc1c(-c2ccc(O)cc2O)oc2c3c(cc(O)c2c1=O)OC(C)(C)C=C3 [Compound 24, morusinol] | 23.1 ± 2.8% | 71.2 ± 1.9% | – | – | – | – |
| Oc1ccc([C@@H]2c3c(O)cc(O)cc3[C@@H]3c4c(O)cc(O)cc4[C@H]2[C@H]3c2ccc(O)cc2)cc1 [Compound 25, ampelopsin F] | 18.9 ± 2.2% | 37.5 ± 0.8% | – | – | – | – |
| COc1cc(O)c(C(=O)/C=C/c2ccccc2)c(O)c1[C@H]1C[C@H](c2ccccc2)Oc2c(OC)c(O)cc(OC)c21 [Compound 26, sarcandrone B] | 1.2 ± 2.5% | 7.5 ± 2.5% | – | – | – | – |
| COc1ccc(C(=O)N(CCN(Cc2ccccc2)C(=O)c2ccc(OC)cc2)Cc2ccccc2)cc1 [Compound 27] | 4.8 ± 4% | 28.2 ± 8.3% | – | – | – | – |
| O=C(CCCN1C(=O)c2ccccc2N2C(=O)c3ccccc3C12)NCCc1cnc[nH]1 (centres unmarked) [Compound 28] | 14.1 ± 5.1% | 59.7 ± 1% | – | – | – | – |
| Cn1c(=O)c2c(nc(SCC(=O)Nc3ccc4c(c3)OCO4)n2Cc2cccc(Cl)c2)n(C)c1=O [Compound 29] | – | 7.3 ± 10.2% | – | – | – | – |

| Structure (SMILES) | inhibition at 20 µM (SARS-CoV-2 M^pro; [8]) | inhibition at 100 µM (SARS-CoV-2 M^pro; buffer with 5 mM DTT) | inhibition at 20 µM (SARS-CoV-2 PLpro [3]) | inhibition at 20 µM (SARS-CoV-2 PLpro [4]) | inhibition at 100 µM (SARS-CoV-2 PLpro [4]) | also measured |
| --- | --- | --- | --- | --- | --- | --- |
| COc1cc(CNC(=O)CCCC/C=C/C(C)C)ccc1O [Compound 31, trans-capsaicin] | – | – | 32.4 ± 13.7% | 5.6 ± 9.7% | 5.3 ± 0.1% | – |
| CN1[C@@H](CC(=O)c2ccccc2)CCC[C@H]1C[C@H](O)c1ccccc1 [Compound 32, lobelin] | – | – | 26.6 ± 11% | 3.7 ± 2.6% | – | – |
| COc1cc([C@@H]2Oc3c(O)cc([C@H]4Oc5cc(O)cc(O)c5C(=O)[C@@H]4O)cc3[C@H]2CO)ccc1O [Compound 33, silicristin] | – | – | – | 3.4 ± 7.8% | 19.8 ± 2% | – |
| COc1cc(C2Oc3cc([C@H]4Oc5cc(O)cc(O)c5C(=O)[C@@H]4O)ccc3OC2CO)ccc1O (some centres unmarked) [Compound 34, silibinin] | – | – | 50.3 ± 14.3% | 6.5 ± 3.6% | – | IC50 (SARS-CoV-2 [1]; [10]): > 100 µM; CC50 (in vitro): > 100 µM |
| C=CCc1ccc(O)c(-c2ccc(O)c(CC=C)c2)c1 [Compound 35, honokiol] | – | – | 80.6 ± 9.9% | 4.9 ± 4.6% | 5.3 ± 3.2% | IC50 (SARS-CoV-2 [1]; [10]): 28.4 µM; antiviral activity against SARS-CoV-2 (in words) (SARS-CoV-2 [1]; two different cell lines (Caco-2, Calu-3)): moderately acting antiviral compounds; CC50 [5]: 91.2 µM; IC50 (SARS-CoV-2 [6]): 16.2 µM; SARS-CoV-2 PLpro inhibition % enzyme inhibition (20 µM) (SARS-CoV-2 PLpro [3]): significant enzyme inhibition; CC50 [2]: > 20 µM |
| CC(C)(O)[C@H](O)COc1c2ccoc2cc2oc(=O)ccc12 [Compound 37, oxypeucedanin hydrate] | – | – | 97.5 ± 14.6% | – | – | IC50 (SARS-CoV-2 [1]; [10]): > 100 µM; CC50 (in vitro): > 100 µM; SARS-CoV-2 PLpro inhibition % enzyme inhibition (20 µM) (SARS-CoV-2 PLpro [3]): significant enzyme inhibition |
| Cn1cc(CNC(=O)c2cc([N+](=O)[O-])ccc2Cl)cn1 [Compound 38] | – | – | 26.1 ± 15.2% | 3 ± 0.7% | 6.4 ± 4.6% | – |
| COCCN1C(=O)C(O)=C(C(=O)c2ccc(OC)c(C)c2)C1c1ccc(O)cc1 (centres unmarked) [Compound 39] | – | – | 26 ± 34.7% | 10 ± 5.4% | 42 ± 1.3% | – |
| O=C(CC(c1ccccc1)c1ccccc1)NCCCc1ccccc1 [Compound 40] | – | – | 41.5 ± 16.5% | 1.6 ± 8.8% | 5 ± 2.6% | – |
| COc1cc2c(cc1OC)/C(=C/C(=O)c1ccc(CSC)cc1)NCC2 [Compound 41] | – | – | – | 9.6 ± 5.8% | 14.6 ± 13.1% | – |
| COc1ccc(C(=O)COc2ccc3c(c2)O/C(=C\c2cc(OC)ccc2OC)C3=O)cc1 [Compound 43] | – | – | 13.5 ± 25.5% | 10 ± 5.4% | 14.3 ± 3.4% | – |
| COc1ccc(S(=O)(=O)NCc2ccc(C(=O)NCc3ccccc3)cc2)cc1 [Compound 44] | – | – | 18.5 ± 16.6% | 6.4 ± 4.2% | 1.5 ± 1.2% | – |
| COc1ccc2c(C)c(CC(=O)Nc3c(C)cccc3C(C)C)c(=O)oc2c1OC [Compound 45] | – | – | -2.6 ± 36.1% | 9 ± 4.3% | 2.6 ± 0.1% | – |
| COc1ccc(CNC(=O)c2ccc(Cn3c(=O)c(C)nc4ccccc43)cc2)cc1 [Compound 46] | – | – | – | 12.7 ± 6.9% | 14 ± 3.4% | – |
| COc1cc(CC(CO)Oc2ccc(CCCO)cc2OC)ccc1O (centres unmarked) [Compound 47] | – | – | -55.8 ± 32.4% | 8.8 ± 5.6% | 0.5 ± 0.8% | – |
| COc1ccc(CNC(=O)c2cn(CCC(C)C)c(=O)c3ccccc23)cc1OC [Compound 48] | – | – | 32 ± 4.2% | 8.2 ± 2.3% | 0.3 ± 0.5% | – |

— PMC9885530, “Identification of Natural Products Inhibiting SARS-CoV-2 by Targeting Viral Proteases: A Combined in Silico and in Vitro Approach” (Journal of Natural Products, 2023)
